Values quoted from earlier work as cited in patent publication US11865215B2, “Tablet compositions comprising abiraterone acetate” (SYNTHON B.V., priority 2018, dated 2024).

Tests used:
[1] = not given; remark: listed apart in the source

SMILES	time to reach maximum plasma concentration of abiraterone (oral administration in the fasting state)	solubility in water [1]	effect of taking the tablet with food on absorption (with food)	BCS System class ([1]; compound of low solubility and low permeability)
C[C@]12CC[C@H](O)CC1=CC[C@@H]1[C@@H]2CC[C@]2(C)C(c3cccnc3)=CC[C@@H]12 [Abiraterone]	approx. 2 hours	less than 0.1 mg/ml	–	–
CC(=O)O[C@H]1CC[C@@]2(C)C(=CC[C@@H]3[C@@H]2CC[C@]2(C)C(c4cccnc4)=CC[C@@H]32)C1 [Abiraterone acetate, 3β-acetoxy-17-(3-pyridyl)androsta-5,16-diene]	–	–	significantly and undesirably increases the absorption	Class IV
